In patent US20260317309A1, “N-HETEROCYLIC GPCR RECEPTOR AGONISTS, PHARMACEUTICAL COMPOSITIONS COMPRISING THE SAME, AND METHODS FOR THEIR USE” (Carmot Therapeutics, Inc., priority 2022, published 2026):

Target: T1, human GLP-1 receptor (Homo sapiens, UniProt P43220)
T1 construct: expressed in transfected cells
Experiment: GLP-1R cAMP assay (cAMP accumulation in CHO cells stably overexpressing the human GLP-1 receptor, HitHunter kit)
Format: cell-based
Conditions: CHO cells stably overexpressing human GLP-1R, 30 min, 20-point dose response in triplicate
Experimental: CAMP accumulation was measured in Chinese hamster ovary (CHO) cells (10,000 cells/well) stably overexpressing the human GLP-1 receptor using the HitHunter CAMP Assay for Small Molecules Kit (Eurofins). Briefly, cells were grown in Ham's F12 Nutrient Mix with 10% FBS, and lifted with Cell Dissociation Buffer, Enzyme free, PBS based (ThermoFisher). Cells were pelleted, and resuspended in Hank's buffered saline solution with 10 mM HEPES, and 625 μM 3-isobutyl-1-methylxanthine. The anti-cAMP antibody reagent was then added to cells at a 1:2 ratio and 5 μL of mixture was seeded in 384-well small volume white assay plates, at 10,000 cells/well. Cells were then treated with 50 nL compound using an ECHO 550 acoustic dispenser (Labcyte) in a 20-point dose response format in triplicate for 30 min. Cells were then lysed, and detection reagents added according to the manufacturer's protocol. After overnight incubation, luminescence was measured using a Perkin Elmer Envision plate reader. Dose response curves were analyzed using GraphPad Prism 9.0.
In the Table, EC50 values are designated as follows: • A: 0 nM<EC50<0.1 nM; • B: 0.1 nM≤EC50<1.0 nM; • C: 1.0 nM≤EC50<10.0 nM; • D: 10.0 nM≤EC50<100 nM; • E: 100 nM≤EC50<500 nM; and • F: ≥500 nM

T1 sequence (P43220 24-463): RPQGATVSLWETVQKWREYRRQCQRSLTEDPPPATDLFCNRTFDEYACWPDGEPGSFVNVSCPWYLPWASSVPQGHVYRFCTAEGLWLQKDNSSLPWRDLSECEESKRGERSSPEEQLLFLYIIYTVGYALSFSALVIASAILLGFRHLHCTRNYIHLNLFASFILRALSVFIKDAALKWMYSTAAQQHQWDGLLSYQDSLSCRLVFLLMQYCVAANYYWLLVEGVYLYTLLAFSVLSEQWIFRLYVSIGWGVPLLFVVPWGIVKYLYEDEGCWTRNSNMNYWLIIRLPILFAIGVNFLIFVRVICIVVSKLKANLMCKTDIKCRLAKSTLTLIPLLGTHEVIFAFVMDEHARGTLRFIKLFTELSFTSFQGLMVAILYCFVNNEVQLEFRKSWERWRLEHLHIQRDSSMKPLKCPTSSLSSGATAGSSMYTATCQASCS

Row | EC50 [nM] | Compound
1 | 0.1 to 1 | CC(c1nc2ccc(C(=O)O)cc2n1C[C@@H]1CCO1)N1CC[C@H](Oc2ccnc(COc3ccc(F)cc3F)n2)C[C@@H]1C (mixture of isomers) [Compound 568, 2-{1-[(2S,4S)-4-({2-[(2,4-difluorophenoxy)methyl]pyrimidin-4-yl}oxy)-2-methylpiperidin-1-yl]ethyl}-1-{[(2S)-oxetan-2-yl]methyl}-1H-1,3-benzodiazole-6-carboxylic acid]
2 | ≥ 500 | CC(c1nc2ccc(C(=O)O)cc2n1C[C@@H](O)CCO)N1CC[C@H](Oc2ccnc(COc3ccc(F)cc3F)n2)C[C@@H]1C (mixture of isomers) [Compound 569, 2-{1-[(2S,4S)-4-({2-[(2,4-difluorophenoxy)methyl]pyrimidin-4-yl}oxy)-2-methylpiperidin-1-yl]ethyl}-1-[(2S)-2,4-dihydroxybutyl]-1H-1,3-benzodiazole-6-carboxylic acid]
3 | 0.1 to 1 | N#Cc1ccc(OCc2nccc(O[C@H]3CCN(Cc4nc5ccc(C(=O)O)cc5n4C[C@@H]4CCO4)C[C@H]3F)n2)c(F)c1 [Compound 552, 2-{[(3R,4S)-4-({2-[(4-cyano-2-fluorophenoxy)methyl]pyrimidin-4-yl}oxy)-3-fluoropiperidin-1-yl]methyl}-1-{[(2S)-oxetan-2-yl]methyl}-1H-1,3-benzodiazole-6-carboxylic acid]
4 | 0.1 to 1 | N#Cc1ccc(OCc2nccc(O[C@H]3CCN(Cc4nc5ccc(C(=O)O)cc5n4C[C@@H]4CCO4)C[C@@H]3F)n2)c(F)c1 [Compound 553, 2-{[(3S,4S)-4-({2-[(4-cyano-2-fluorophenoxy)methyl]pyrimidin-4-yl}oxy)-3-fluoropiperidin-1-yl]methyl}-1-{[(2S)-oxetan-2-yl]methyl}-1H-1,3-benzodiazole-6-carboxylic acid]
5 | < 0.1 | C[C@H]1C[C@@H](Oc2ccnc(COc3ncc(Cl)cc3F)n2)CCN1Cc1nc2ccc(C(=O)O)cc2n1C[C@@H]1CCO1 [Compound 554, 2-(((2S,4S)-4-((2-(((5-Chloro-3-fluoropyridin-2-yl)oxy)methyl)pyrimidin-4-yl)oxy)-2-methylpiperidin-1-yl)methyl)-1-(((S)-oxetan-2-yl)methyl)-1H-benzo[d]imidazole-6-carboxylic acid]
6 | < 0.1 | O=C(O)c1ccc2nc(CN3CC[C@H](Oc4ccnc(COc5ccc(Cl)cc5F)c4)C[C@@H]3CF)n(C[C@@H]3CCO3)c2c1 [Compound 555, 2-(((2R,4S)-4-((2-((4-Chloro-2-fluorophenoxy)methyl)pyridin-4-yl)oxy)-2-(fluoromethyl)piperidin-1-yl)methyl)-1-(((S)-oxetan-2-yl)methyl)-1H-benzo[d]imidazole-6-carboxylic acid]
7 | 0.1 to 1 | C[C@H]1C[C@@H](Oc2ccnc(COc3ccc(F)cc3C#N)n2)CCN1Cc1nc2ncc(C(=O)O)cc2n1C[C@@H]1CCO1 [Compound 556, 2-(((2S,4S)-4-((2-((2-Cyano-4-fluorophenoxy)methyl)pyrimidin-4-yl)oxy)-2-methylpiperidin-1-yl)methyl)-1-(((S)-oxetan-2-yl)methyl)-1H-imidazo[4,5-b]pyridine-6-carboxylic acid]
8 | 1 to 10 | N#CC[C@H]1C[C@@H](Oc2ccnc(COc3ccc(F)cc3Cl)n2)CCN1Cc1nc2ccc(C(=O)O)cc2n1C[C@@H]1CCO1 [Compound 557, 2-{[(2S,4S)-4-({2-[(2-Chloro-4-fluorophenoxy)methyl]pyrimidin-4-yl}oxy)-2-(cyanomethyl)piperidin-1-yl]methyl}-1-{[(2S)-oxetan-2-yl]methyl}-1H-1,3-benzodiazole-6-carboxylic acid]
9 | 0.1 to 1 | C[C@H]1C[C@@H](Oc2ccnc(COc3ccc(F)cc3C#N)n2)CCN1Cc1nc2ccc(C(=O)O)cc2n1C[C@H]1CCOC1 [Compound 558, 2-{[(2S,4S)-4-({2-[(2-cyano-4-fluorophenoxy)methyl]pyrimidin-4-yl}oxy)-2-methylpiperidin-1-yl]methyl}-1-{[(3R)-oxolan-3-yl]methyl}-1H-1,3-benzodiazole-6-carboxylic acid]
